Test results from patent publication US10844077B2, “Thiazolyl-containing compounds for treating proliferative diseases” (Dana-Farber Cancer Institute, Inc., priority 2014, dated 2020).
Where “and” joins values, the source holds several entries; their conditions need not be identical. Equal entries are not always repeated.

Experiments:
Experiment in all cases: KINATIV assay
Type in all cases: cell-based
Settings in all cases: 1 μM, 90 minutes, BCWM.1 cells
[1] = target: MAP3K2 (Homo sapiens (Human), UniProt Q9Y2U5)
How it was run: (§1)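 Duplicate compound samples were compared with duplicate or quadruplicate controls. After harvesting and lysis, cells' lysates were probe-labeled (ATP-biotin), and kinase labeling was quantitated by ACTIVX.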

[2] = target: PIK3CD (Homo sapiens (Human), UniProt O00329)
How it was run: as §1

[3] = target: NEK7 (Homo sapiens (Human), UniProt Q8TDX7)
How it was run: as §1

[4] = target: ITPK1 (Homo sapiens (Human), UniProt Q13572)
How it was run: as §1

[5] = target: CaMK2d (Homo sapiens (Human), UniProt Q13557)
How it was run: as §1

[6] = target: MARK3 (Homo sapiens (Human), UniProt P27448)
How it was run: as §1

[7] = tested on: PITSLRE
How it was run: as §1

[8] = target: RSK3 domain1 (Homo sapiens (Human), UniProt Q15349)
How it was run: as §1

[9] = target: NEK4 (Homo sapiens (Human), UniProt P51957)
How it was run: as §1

[10] = target: IKKa (Homo sapiens (Human), UniProt O15111)
How it was run: as §1

[11] = target: PI4KB (Homo sapiens (Human), UniProt Q9UBF8)
How it was run: as §1

[12] = tested on: RSK1, RSK2, RSK3 domain1
How it was run: as §1

[13] = target: CASK (Homo sapiens (Human), UniProt O14936)
How it was run: as §1

[14] = tested on: p38d, p38g
How it was run: as §1

[15] = target: TBK1 (Homo sapiens (Human), UniProt Q9UHD2)
How it was run: as §1

[16] = target: p70S6Kb (Homo sapiens (Human), UniProt Q9UBS0)
How it was run: as §1

[17] = tested on: PI4KA, PI4KAP2
How it was run: as §1

[18] = target: CaMK4 (Homo sapiens (Human), UniProt Q16566)
How it was run: as §1

[19] = target: NEK2 (Homo sapiens (Human), UniProt P51955)
How it was run: as §1

[20] = target: ACK (Homo sapiens (Human), UniProt Q07912)
How it was run: as §1

[21] = target: EphB1 (Homo sapiens (Human), UniProt P54762)
How it was run: as §1

[22] = target: FGR (Homo sapiens (Human), UniProt P09769)
How it was run: as §1

[23] = target: AMPKa1 (Homo sapiens (Human), UniProt Q13131)
How it was run: as §1

[24] = target: Erk5 (Homo sapiens (Human), UniProt Q13164)
How it was run: as §1

[25] = target: MELK (Homo sapiens (Human), UniProt Q14680)
How it was run: as §1

[26] = target: MAP3K6 (Homo sapiens (Human), UniProt O95382)
How it was run: as §1

[27] = target: TYK2 domain2 (Homo sapiens (Human), UniProt P29597)
How it was run: as §1

[28] = tested on: MAP3K2, MAP3K3
How it was run: as §1

[29] = target: ATR (Homo sapiens (Human), UniProt Q13535)
How it was run: as §1

[30] = target: MASTL (Homo sapiens (Human), UniProt Q96GX5)
How it was run: as §1

[31] = target: HPK1 (Homo sapiens (Human), UniProt Q92918)
How it was run: as §1

[32] = target: OSR1 (Homo sapiens (Human), UniProt O95747)
How it was run: as §1

[33] = target: NEK9 (Homo sapiens (Human), UniProt Q8TD19)
How it was run: as §1

[34] = target: TEC (Homo sapiens (Human), UniProt P42680)
How it was run: as §1

[35] = target: LATS2 (Homo sapiens (Human), UniProt Q9NRM7)
How it was run: as §1

[36] = tested on: Wnk1, Wnk2, Wnk4
How it was run: as §1

[37] = target: MARK2 (Homo sapiens (Human), UniProt Q7KZI7)
How it was run: as §1

[38] = target: MLK3 (Homo sapiens (Human), UniProt Q16584)
How it was run: as §1

[39] = target: MAP3K4 (Homo sapiens (Human), UniProt Q9Y6R4)
How it was run: as §1

[40] = target: TLK1 (Homo sapiens (Human), UniProt Q9UKI8)
How it was run: as §1

[41] = tested on: AMPKa1, AMPKa2
How it was run: as §1

Chain of CaMK4 (Q16566 whole entry): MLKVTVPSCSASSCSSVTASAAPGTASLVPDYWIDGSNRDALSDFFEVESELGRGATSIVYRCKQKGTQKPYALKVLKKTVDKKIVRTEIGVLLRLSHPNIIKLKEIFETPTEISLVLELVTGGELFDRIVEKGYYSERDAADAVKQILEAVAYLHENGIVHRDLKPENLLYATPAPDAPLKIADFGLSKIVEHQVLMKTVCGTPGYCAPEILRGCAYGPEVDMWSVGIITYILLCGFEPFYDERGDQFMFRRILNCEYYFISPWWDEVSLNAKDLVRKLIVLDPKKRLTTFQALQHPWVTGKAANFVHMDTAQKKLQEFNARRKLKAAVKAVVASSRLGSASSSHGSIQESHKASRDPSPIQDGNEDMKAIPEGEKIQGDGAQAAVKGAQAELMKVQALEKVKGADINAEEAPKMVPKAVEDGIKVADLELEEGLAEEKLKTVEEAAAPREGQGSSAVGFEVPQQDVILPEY
Chain of MARK2 (Q7KZI7 whole entry): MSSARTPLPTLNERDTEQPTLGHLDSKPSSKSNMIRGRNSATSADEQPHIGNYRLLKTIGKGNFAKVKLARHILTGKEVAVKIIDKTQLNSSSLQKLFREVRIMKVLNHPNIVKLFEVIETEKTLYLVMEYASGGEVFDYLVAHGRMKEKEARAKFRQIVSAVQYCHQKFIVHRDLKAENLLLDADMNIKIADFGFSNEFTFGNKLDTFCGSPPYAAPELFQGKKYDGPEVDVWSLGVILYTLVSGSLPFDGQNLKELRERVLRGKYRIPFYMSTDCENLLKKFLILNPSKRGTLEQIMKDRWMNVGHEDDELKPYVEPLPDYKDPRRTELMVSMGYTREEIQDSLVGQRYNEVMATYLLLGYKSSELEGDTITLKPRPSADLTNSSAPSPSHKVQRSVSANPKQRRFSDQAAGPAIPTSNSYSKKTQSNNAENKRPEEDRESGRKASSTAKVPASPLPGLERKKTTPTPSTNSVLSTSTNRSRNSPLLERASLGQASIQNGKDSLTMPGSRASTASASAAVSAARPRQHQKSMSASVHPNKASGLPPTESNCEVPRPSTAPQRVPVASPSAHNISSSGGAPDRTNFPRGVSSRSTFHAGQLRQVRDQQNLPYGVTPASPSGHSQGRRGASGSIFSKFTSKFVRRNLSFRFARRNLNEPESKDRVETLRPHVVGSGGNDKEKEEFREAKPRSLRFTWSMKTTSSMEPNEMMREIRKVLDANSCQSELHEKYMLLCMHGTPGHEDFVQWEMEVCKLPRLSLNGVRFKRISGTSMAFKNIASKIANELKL
Chain of MLK3 (Q16584 whole entry): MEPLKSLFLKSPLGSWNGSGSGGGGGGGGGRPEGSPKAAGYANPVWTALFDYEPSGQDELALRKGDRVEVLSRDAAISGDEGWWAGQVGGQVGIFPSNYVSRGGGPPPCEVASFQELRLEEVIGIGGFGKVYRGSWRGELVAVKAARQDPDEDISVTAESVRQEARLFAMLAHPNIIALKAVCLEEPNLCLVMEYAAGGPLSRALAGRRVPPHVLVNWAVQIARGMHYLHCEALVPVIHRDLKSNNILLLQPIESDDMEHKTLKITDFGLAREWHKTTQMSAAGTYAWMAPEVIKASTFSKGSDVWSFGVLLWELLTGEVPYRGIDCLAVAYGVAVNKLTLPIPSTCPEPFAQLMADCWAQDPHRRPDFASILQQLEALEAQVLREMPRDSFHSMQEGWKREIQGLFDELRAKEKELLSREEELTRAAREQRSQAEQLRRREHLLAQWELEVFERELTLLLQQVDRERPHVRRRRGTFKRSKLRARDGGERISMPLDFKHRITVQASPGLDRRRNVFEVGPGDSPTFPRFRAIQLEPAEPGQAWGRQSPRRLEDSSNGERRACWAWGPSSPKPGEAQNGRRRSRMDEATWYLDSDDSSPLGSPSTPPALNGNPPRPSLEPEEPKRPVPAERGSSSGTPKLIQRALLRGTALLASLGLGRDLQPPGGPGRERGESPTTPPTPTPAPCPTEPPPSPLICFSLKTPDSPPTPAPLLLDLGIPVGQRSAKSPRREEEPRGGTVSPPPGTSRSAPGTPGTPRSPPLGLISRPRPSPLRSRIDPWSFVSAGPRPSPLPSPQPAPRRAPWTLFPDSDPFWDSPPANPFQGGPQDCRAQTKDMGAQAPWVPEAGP
Chain of MASTL (Q96GX5 whole entry): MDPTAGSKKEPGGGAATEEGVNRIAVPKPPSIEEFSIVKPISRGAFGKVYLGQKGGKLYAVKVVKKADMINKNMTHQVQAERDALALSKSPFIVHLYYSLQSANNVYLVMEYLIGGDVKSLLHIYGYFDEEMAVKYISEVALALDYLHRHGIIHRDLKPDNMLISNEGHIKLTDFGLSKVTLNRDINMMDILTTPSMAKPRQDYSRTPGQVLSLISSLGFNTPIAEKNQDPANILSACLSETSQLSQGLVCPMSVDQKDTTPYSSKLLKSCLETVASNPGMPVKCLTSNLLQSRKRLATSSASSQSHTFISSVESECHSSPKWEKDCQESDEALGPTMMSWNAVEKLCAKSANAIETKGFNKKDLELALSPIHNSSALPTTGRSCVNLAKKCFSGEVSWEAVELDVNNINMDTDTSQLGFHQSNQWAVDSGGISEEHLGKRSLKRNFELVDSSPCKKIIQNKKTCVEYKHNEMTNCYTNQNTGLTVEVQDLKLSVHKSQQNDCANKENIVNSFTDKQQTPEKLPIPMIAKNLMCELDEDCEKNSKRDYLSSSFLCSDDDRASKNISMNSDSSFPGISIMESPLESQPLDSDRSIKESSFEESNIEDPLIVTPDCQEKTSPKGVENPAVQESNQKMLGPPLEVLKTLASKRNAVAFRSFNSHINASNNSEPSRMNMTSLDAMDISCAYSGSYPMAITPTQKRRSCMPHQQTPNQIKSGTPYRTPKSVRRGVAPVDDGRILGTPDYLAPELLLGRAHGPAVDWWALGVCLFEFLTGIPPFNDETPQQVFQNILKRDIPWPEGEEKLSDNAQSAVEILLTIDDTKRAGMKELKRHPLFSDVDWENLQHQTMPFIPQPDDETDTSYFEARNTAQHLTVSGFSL
Chain of TLK1 (Q9UKI8 whole entry): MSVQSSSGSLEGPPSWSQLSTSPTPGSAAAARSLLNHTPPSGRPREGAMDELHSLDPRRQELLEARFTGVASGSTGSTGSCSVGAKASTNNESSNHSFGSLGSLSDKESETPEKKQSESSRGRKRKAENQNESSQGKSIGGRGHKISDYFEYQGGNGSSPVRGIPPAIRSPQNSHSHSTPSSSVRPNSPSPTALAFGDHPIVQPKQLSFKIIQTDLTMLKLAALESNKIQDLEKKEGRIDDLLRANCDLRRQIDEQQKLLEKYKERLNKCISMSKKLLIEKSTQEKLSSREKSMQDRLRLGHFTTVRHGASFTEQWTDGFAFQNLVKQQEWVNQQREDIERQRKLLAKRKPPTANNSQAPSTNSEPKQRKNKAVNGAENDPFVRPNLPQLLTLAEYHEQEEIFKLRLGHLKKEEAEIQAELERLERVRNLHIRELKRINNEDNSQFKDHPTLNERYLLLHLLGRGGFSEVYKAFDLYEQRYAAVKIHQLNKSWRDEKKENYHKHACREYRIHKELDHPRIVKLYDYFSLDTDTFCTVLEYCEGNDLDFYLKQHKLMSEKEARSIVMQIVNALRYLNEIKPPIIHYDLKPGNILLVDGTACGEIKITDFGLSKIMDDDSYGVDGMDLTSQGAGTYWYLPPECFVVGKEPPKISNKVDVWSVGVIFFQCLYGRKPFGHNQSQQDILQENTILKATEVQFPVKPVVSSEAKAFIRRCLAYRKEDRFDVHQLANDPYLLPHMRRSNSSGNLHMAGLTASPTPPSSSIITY
Chain of FGR (P09769 whole entry): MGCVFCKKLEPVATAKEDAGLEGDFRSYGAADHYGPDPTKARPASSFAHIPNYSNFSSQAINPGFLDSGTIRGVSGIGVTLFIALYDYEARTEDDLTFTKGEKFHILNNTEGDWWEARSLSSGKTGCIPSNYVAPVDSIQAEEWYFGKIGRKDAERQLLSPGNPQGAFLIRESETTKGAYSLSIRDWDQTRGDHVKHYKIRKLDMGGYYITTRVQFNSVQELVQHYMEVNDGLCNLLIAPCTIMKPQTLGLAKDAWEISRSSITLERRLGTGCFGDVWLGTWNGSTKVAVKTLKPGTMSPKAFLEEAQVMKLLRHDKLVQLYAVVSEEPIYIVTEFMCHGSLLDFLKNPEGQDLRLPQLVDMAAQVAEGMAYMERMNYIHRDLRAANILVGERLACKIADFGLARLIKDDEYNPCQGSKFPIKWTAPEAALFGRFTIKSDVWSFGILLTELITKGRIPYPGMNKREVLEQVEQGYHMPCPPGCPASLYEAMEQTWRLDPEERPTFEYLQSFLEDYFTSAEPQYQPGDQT
Chain of MAP3K2 (Q9Y2U5 whole entry): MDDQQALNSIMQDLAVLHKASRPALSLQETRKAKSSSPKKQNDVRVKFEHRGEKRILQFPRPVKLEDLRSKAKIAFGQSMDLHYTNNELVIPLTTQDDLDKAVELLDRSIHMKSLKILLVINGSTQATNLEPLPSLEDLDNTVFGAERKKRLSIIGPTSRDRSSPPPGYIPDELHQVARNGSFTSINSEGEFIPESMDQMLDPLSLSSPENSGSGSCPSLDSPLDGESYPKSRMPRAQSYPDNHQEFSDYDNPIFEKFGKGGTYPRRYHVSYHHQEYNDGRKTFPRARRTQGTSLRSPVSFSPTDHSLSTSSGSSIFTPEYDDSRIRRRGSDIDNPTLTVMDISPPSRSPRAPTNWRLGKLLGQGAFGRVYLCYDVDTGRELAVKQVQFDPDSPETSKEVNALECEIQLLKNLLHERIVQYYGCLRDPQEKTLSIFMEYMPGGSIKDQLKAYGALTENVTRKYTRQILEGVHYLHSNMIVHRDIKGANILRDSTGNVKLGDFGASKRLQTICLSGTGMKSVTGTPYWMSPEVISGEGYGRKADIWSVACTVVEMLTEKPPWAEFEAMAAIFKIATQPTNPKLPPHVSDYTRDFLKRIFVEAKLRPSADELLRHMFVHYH

C=CC(=O)N1CCC(CNc2nccc(Nc3ncc(C(=O)Nc4c(C)cccc4C)s3)n2)C1 (racemic) [Example I-8]
% change of MS signal compared to control sample [1]: 3.5% | % change of MS signal compared to control sample [2]: −16.2% | % change of MS signal compared to control sample [3]: −1.0% | % change of MS signal compared to control sample [4]: −16.4% | % change of MS signal compared to control sample [5]: −22.3% | % change of MS signal compared to control sample [6]: 7.8% | % change of MS signal compared to control sample [7]: −16.1% | % change of MS signal compared to control sample [8]: −62.5% | % change of MS signal compared to control sample [9]: 15.2% | % change of MS signal compared to control sample [10]: −4.2% | % change of MS signal compared to control sample [11]: 44.2% and 41.9% | % change of MS signal compared to control sample [12]: −55.6% | % change of MS signal compared to control sample [13]: 43.0% | % change of MS signal compared to control sample [14]: 3.3% | % change of MS signal compared to control sample [15]: −2.9% | % change of MS signal compared to control sample [16]: −22.7% | % change of MS signal compared to control sample [17]: −9.9% | % change of MS signal compared to control sample [18]: −26.3% | % change of MS signal compared to control sample [19]: −3.0% | % change of MS signal compared to control sample [20]: 69.9% and 82.4% | % change of MS signal compared to control sample [21]: >97% | % change of MS signal compared to control sample [22]: 86.0% | % change of MS signal compared to control sample [23]: −0.6% | % change of MS signal compared to control sample [24]: −11.4% | % change of MS signal compared to control sample [25]: −10.0% | % change of MS signal compared to control sample [26]: −8.1% | % change of MS signal compared to control sample [27]: −44.6% | % change of MS signal compared to control sample [28]: 19.4% | % change of MS signal compared to control sample [29]: −24.9% | % change of MS signal compared to control sample [30]: −16.9% and −9.5% | % change of MS signal compared to control sample [31]: 32.8% and 24.6% | % change of MS signal compared to control sample [32]: 27.9% | % change of MS signal compared to control sample [33]: −1.3% and −0.3% | % change of MS signal compared to control sample [34]: 79.5% and 71.1% | % change of MS signal compared to control sample [35]: 10.6% | % change of MS signal compared to control sample [36]: −16.3% | % change of MS signal compared to control sample [37]: 12.1% | % change of MS signal compared to control sample [38]: 11.7% | % change of MS signal compared to control sample [39]: 12.8%

C=CC(=O)N1CCC(Cn2ccc(Nc3ncc(C(=O)Nc4c(C)cccc4Cl)s3)n2)C1 (stereo not shown) [II-1]
% change of MS signal compared to control sample [1]: 21.3% | % change of MS signal compared to control sample [2]: −9.5% | % change of MS signal compared to control sample [3]: −8.5% | % change of MS signal compared to control sample [4]: 14.0% | % change of MS signal compared to control sample [5]: −14.8% | % change of MS signal compared to control sample [6]: 18.4% | % change of MS signal compared to control sample [7]: −16.1% | % change of MS signal compared to control sample [8]: −58.4% | % change of MS signal compared to control sample [9]: 18.5% | % change of MS signal compared to control sample [40]: 7.1% and 5.7% | % change of MS signal compared to control sample [10]: −2.1% | % change of MS signal compared to control sample [11]: 7.2% and 13.7% | % change of MS signal compared to control sample [12]: −52.0% | % change of MS signal compared to control sample [13]: 29.4% | % change of MS signal compared to control sample [14]: −6.6% | % change of MS signal compared to control sample [15]: −30.2% | % change of MS signal compared to control sample [16]: −57.1% | % change of MS signal compared to control sample [17]: −45.7% | % change of MS signal compared to control sample [18]: −10.3% | % change of MS signal compared to control sample [19]: −6.0% | % change of MS signal compared to control sample [20]: 51.7% and 50.8% | % change of MS signal compared to control sample [21]: 91.0% | % change of MS signal compared to control sample [41]: −19.4% and −27.3% | % change of MS signal compared to control sample [22]: 87.8% | % change of MS signal compared to control sample [23]: 5.1% | % change of MS signal compared to control sample [24]: −14.2% | % change of MS signal compared to control sample [25]: 4.2% | % change of MS signal compared to control sample [26]: 18.9% | % change of MS signal compared to control sample [27]: −19.0% | % change of MS signal compared to control sample [28]: 17.1% | % change of MS signal compared to control sample [29]: −55.3% | % change of MS signal compared to control sample [30]: −16.7% and −8.2% | % change of MS signal compared to control sample [31]: 23.0% and 12.1% | % change of MS signal compared to control sample [32]: 16.4% | % change of MS signal compared to control sample [33]: −1.0% and −0.1% | % change of MS signal compared to control sample [34]: 91.5% and 80.8% | % change of MS signal compared to control sample [35]: −2.9% | % change of MS signal compared to control sample [36]: −8.1% | % change of MS signal compared to control sample [37]: 15.4% | % change of MS signal compared to control sample [38]: −18.0% | % change of MS signal compared to control sample [39]: −23.9%

C=CC(=O)N1CC[C@@H](Nc2nccc(Nc3ncc(C(=O)Nc4c(C)cccc4C)s3)n2)C1 [Example I-4]
% change of MS signal compared to control sample [1]: 12.1% | % change of MS signal compared to control sample [2]: −14.5% | % change of MS signal compared to control sample [3]: −7.7% | % change of MS signal compared to control sample [4]: 12.8% | % change of MS signal compared to control sample [5]: −8.5% | % change of MS signal compared to control sample [6]: 13.5% | % change of MS signal compared to control sample [7]: −13.6% | % change of MS signal compared to control sample [8]: −26.9% | % change of MS signal compared to control sample [9]: 12.3% | % change of MS signal compared to control sample [40]: 2.2% and 8.2% | % change of MS signal compared to control sample [10]: 6.4% | % change of MS signal compared to control sample [11]: 20.0% and 16.7% | % change of MS signal compared to control sample [12]: −44.0% | % change of MS signal compared to control sample [13]: 23.2% | % change of MS signal compared to control sample [14]: −2.7% | % change of MS signal compared to control sample [15]: −34.8% | % change of MS signal compared to control sample [16]: −72.4% | % change of MS signal compared to control sample [17]: −37.7% | % change of MS signal compared to control sample [18]: −7.1% | % change of MS signal compared to control sample [19]: 22.3% | % change of MS signal compared to control sample [20]: 27.0% and 22.8% | % change of MS signal compared to control sample [21]: >97% | % change of MS signal compared to control sample [41]: −40.3% | % change of MS signal compared to control sample [22]: 87.0% | % change of MS signal compared to control sample [23]: 10.1% | % change of MS signal compared to control sample [24]: −9.0% | % change of MS signal compared to control sample [25]: −11.7% | % change of MS signal compared to control sample [26]: 10.9% | % change of MS signal compared to control sample [27]: −3.8% | % change of MS signal compared to control sample [28]: 24.8% | % change of MS signal compared to control sample [29]: −66.1% | % change of MS signal compared to control sample [30]: −2.9% and −0.3% | % change of MS signal compared to control sample [31]: 26.6% | % change of MS signal compared to control sample [32]: 26.7% | % change of MS signal compared to control sample [33]: −0.1% and 4.4% | % change of MS signal compared to control sample [34]: 68.7% and 73.7% | % change of MS signal compared to control sample [35]: −9.2% | % change of MS signal compared to control sample [36]: −0.5% | % change of MS signal compared to control sample [37]: 3.6% | % change of MS signal compared to control sample [38]: −27.2% | % change of MS signal compared to control sample [39]: −20.5%
